The record followed here is PMC9045388, “Identification of a KPC Variant Conferring Resistance to Ceftazidime-Avibactam from ST11 Carbapenem-Resistant Klebsiella pneumoniae Strains” (Microbiology Spectrum, 2022).

In the assay the target is T1, KPC-2 (Klebsiella pneumoniae, UniProt Q9F663).
T1 construct: untagged, full gene in pCR-BluntII-Topo (pTOPO-KPC-2), expressed in E. coli TOP10; ion exchange and gel filtration
As to the kind of experiment: steady-state hydrolysis, UV-Vis at […] nm. To be noted: 100 mM sodium phosphate, pH 7.0. Format: biochemical.

SMILES strings stand for the structures.

T1 sequence (Q9F663 25-293 limits assumed): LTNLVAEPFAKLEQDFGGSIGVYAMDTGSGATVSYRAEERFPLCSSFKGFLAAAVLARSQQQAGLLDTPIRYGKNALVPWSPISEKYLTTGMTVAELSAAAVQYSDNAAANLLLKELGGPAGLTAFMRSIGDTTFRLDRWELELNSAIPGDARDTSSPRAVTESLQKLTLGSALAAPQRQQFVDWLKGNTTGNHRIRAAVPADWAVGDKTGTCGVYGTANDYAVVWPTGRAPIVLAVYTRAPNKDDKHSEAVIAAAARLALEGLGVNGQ

In the case of `O=C(Cc1cccs1)N[C@@H]1C(=O)N2C(C(=O)O)=C(/C=C/c3ccc([N+](=O)[O-])cc3[N+](=O)[O-])CS[C@H]12` [nitrocefin], the Km was 17.9 µM.

One may read the Km as the substrate concentration at which the rate is half of its maximum.
